# Assay results reported in patent US20260241012A1, “1,8-NAPHTHYRIDIN-2-ONE HETEROBIFUNCTIONAL BCL6 DEGRADERS” (Treeline Biosciences, Inc., priority 2022, published 2026).
# Biological target: T1, N-terminal HiBiT tagged BCL6 (Homo sapiens, UniProt P41182)
# T1 construct: expressed in transfected cells; host or cells: HT1080 (ATCC CCL-121), stably transduced with lentivirus pLV-UBC-N-HiBiT-BCL6-PGK-puro
# Experiment: HiBiT based degradation assay
# Assay type: cell-based
# Conditions: HT1080 cells expressing N-terminal HiBiT tagged BCL6, 5 hours of incubation; for Ymin (5 hr): BCL6 degradation normalized with DMSO control; for DC50: four-parameter logistic model, read-out: EC50 (5 hr)
# Description: Human BCL6 protein coding open reading frame fused with N-terminal HiBiT coding sequence was synthesized from Integrated DNA Technologies (IDT). Next, the N-HiBiT-BCL6 sequence was cloned into pLV-UBC-PGK-Puro, a lentivirus plasmid purchased from Vectorbuilder, to generate pLV-UBC-N-HiBiT-BCL6-PGK-puro. Lentiviral particles were generated from Lenti-X™ 293T cells (Clontech) by co-transfection of pLV-UBC-N-HiBiT-BCL6-PGK-puro plasmids and lentiviral packaging plasmid mix (Cellecta). HT1080 [HT1080] (ATCC CCL-121) cells were infected with the lentivirus, and HT1080 cells stably integrated with the lentiviral vectors were established by incubation with 1 μg/mL puromycin (Thermofisher).
# HT1080 cells expressing N-terminal HiBiT tagged BCL6 were dispensed into a 384-well plate pre-spotted with compounds at varying concentrations. Five thousand cells were seeded into each well in 40 μL of RPMI 1640 media plus 10% Fetal Bovine Serum (10082-147, Thermofisher). After 5 hours of incubation at 37° C. with 5% CO2, 30 μL of the NANO-GLOR HiBiT Lytic Detection System working solution (Promega) was added to each well and incubated at room temperature for 15 min. After incubation, luminescence was read on a PHERAstar FSX Plate Reader (BMG). BCL6 degradation at each indicated concentration was normalized with DMSO control. The BCL6 degradation curves were plotted using a four-parameter logistic model.
Structure (SMILES),Ymin (5 hr),DC50
"CNC(=O)COc1cc2cc(Nc3nc(N4CC5(CC[C@@H](Nc6ccc7c(C8CCC(=O)NC8=O)nn(C)c7c6)[C@@H](C(F)(F)F)C5)C4)ncc3Cl)cnc2n(C(C)C)c1=O (relative stereo) [Compound 221a, 2-((6-((5-chloro-2-((6S,7R)-7-((3-(2,6-dioxopiperidin-3-yl)-1-methyl-1H-indazol-6-yl)amino)-6-(trifluoromethyl)-2-azaspiro[3.5]nonan-2-yl)pyrimidin-4-yl)amino)-1-isopropyl-2-oxo-1,2-dihydro-1,8-naphthyridin-3-yl)oxy)-N-methylacetamide]",++++ (Ymin < 30%),< 10 nM
"CNC(=O)COc1cc2cc(Nc3nc(N4CCC(CN5CCN(c6ccc7c(C8CCC(=O)NC8=O)nn(C)c7c6)C[C@@H]5C)CC4)ncc3Cl)cnc2n(C(C)C)c1=O (stereo partly drawn) [Compound 215b, 2-((6-((5-chloro-2-(4-(((2S)-4-(3-(2,6-dioxopiperidin-3-yl)-1-methyl-1H-indazol-6-yl)-2-methylpiperazin-1-yl)methyl)piperidin-1-yl)pyrimidin-4-yl)amino)-1-isopropyl-2-oxo-1,2-dihydro-1,8-naphthyridin-3-yl)oxy)-N-methylacetamide]",+++ (30% ≤ Ymin < 50%),10 to 100 nM
"CNC(=O)COc1cc2cc(Nc3nc(N4CCN(CC5CCN(c6cccc7c(C8CCC(=O)NC8=O)nn(C)c67)CC5)C[C@@H]4C)ncc3Cl)cnc2n(C(C)C)c1=O (stereo partly drawn) [Compound 168a, 2-[[6-[[5-chloro-2-[(2S)-4-[[1-[3-(2,6-dioxo-3-piperidyl)-1-methyl-indazol-7-yl]-4-piperidyl]methyl]-2-methyl-piperazin-1-yl]pyrimidin-4-yl]amino]-1-isopropyl-2-oxo-1,8-naphthyridin-3-yl]oxy]-N-methyl-acetamide]",+++ (30% ≤ Ymin < 50%),10 to 100 nM
"CNC(=O)COc1cc2cc(Nc3nc(N4CCC(F)(CN5CCC(c6ccc7c(C8CCC(=O)NC8=O)nn(C)c7c6)CC5)CC4)ncc3Cl)cnc2n(C(C)C)c1=O (stereo not drawn) [Compound 167, 2-[[6-[[5-chloro-2-[4-[[4-[3-(2,6-dioxo-3-piperidyl)-1-methyl-indazol-6-yl]-1-piperidyl]methyl]-4-fluoro-1-piperidyl]pyrimidin-4-yl]amino]-1-isopropyl-2-oxo-1,8-naphthyridin-3-yl]oxy]-N-methyl-acetamide]",++++ (Ymin < 30%),< 10 nM
"CNC(=O)COc1cc2cc(Nc3nc(N4CC[C@@H](CN5CCN(c6cccc7c(C8CCC(=O)NC8=O)nn(C)c67)CC5)[C@@H](C)C4)ncc3Cl)cnc2n(C(C)C)c1=O (stereo partly drawn) [Compound 177b, 2-[[6-[[5-chloro-2-[(3R,4R)-4-[[4-[3-(2,6-dioxo-3-piperidyl)-1-methyl-indazol-7-yl]piperazin-1-yl]methyl]-3-methyl-1-piperidyl]pyrimidin-4-yl]amino]-1-isopropyl-2-oxo-1,8-naphthyridin-3-yl]oxy]-N-methyl-acetamide]",+++ (30% ≤ Ymin < 50%),10 to 100 nM
"CNC(=O)COc1cc2cc(Nc3nc(N4CCN(CC5CCN(c6cccc7c(C8CCC(=O)NC8=O)nn(C)c67)CC5)C[C@H]4C)ncc3Cl)cnc2n(C(C)C)c1=O (stereo partly drawn) [Compound 168b, 2-[[6-[[5-chloro-2-[(2R)-4-[[1-[3-(2,6-dioxo-3-piperidyl)-1-methyl-indazol-7-yl]-4-piperidyl]methyl]-2-methyl-piperazin-1-yl]pyrimidin-4-yl]amino]-1-isopropyl-2-oxo-1,8-naphthyridin-3-yl]oxy]-N-methyl-acetamide]",+++ (30% ≤ Ymin < 50%),10 to 100 nM
"CNC(=O)COc1cc2cc(Nc3nc(N4CC5(CCC(Oc6ccc7c(C8CCC(=O)NC8=O)nn(C)c7c6)CC5)C4)ncc3Cl)cnc2n(C(C)C)c1=O (stereo not drawn) [Compound 183, 2-[[6-[[5-chloro-2-[7-[3-(2,6-dioxo-3-piperidyl)-1-methyl-indazol-6-yl]oxy-2-azaspiro[3.5]nonan-2-yl]pyrimidin-4-yl]amino]-1-isopropyl-2-oxo-1,8-naphthyridin-3-yl]oxy]-N-methyl-acetamide]",++++ (Ymin < 30%),< 10 nM
"CNC(=O)COc1cc2cc(Nc3nc(N4CCC(CN5CCCN(c6cccc7c(C8CCC(=O)NC8=O)nn(C)c67)CC5)CC4)ncc3Cl)cnc2n(C(C)C)c1=O (stereo not drawn) [Compound 236, 2-[[6-[[5-chloro-2-[4-[[4-[3-(2,6-dioxo-3-piperidyl)-1-methyl-indazol-7-yl]-1,4-diazepan-1-yl]methyl]-1-piperidyl]pyrimidin-4-yl]amino]-1-isopropyl-2-oxo-1,8-naphthyridin-3-yl]oxy]-N-methyl-acetamide]",+++ (30% ≤ Ymin < 50%),< 10 nM
"CNC(=O)COc1cc2cc(Nc3nc(N4CCN(CC5CCN(c6ccc7c(C8CCC(=O)NC8=O)nn(C)c7c6)CC5)[C@@H](CO)C4)ncc3Cl)cnc2n(C(C)C)c1=O (stereo partly drawn) [Compound 153a, 2-((6-((5-chloro-2-((3R)-4-((1-(3-(2,6-dioxopiperidin-3-yl)-1-methyl-1H-indazol-6-yl)piperidin-4-yl)methyl)-3-(hydroxymethyl)piperazin-1-yl)pyrimidin-4-yl)amino)-1-isopropyl-2-oxo-1,2-dihydro-1,8-naphthyridin-3-yl)oxy)-N-methylacetamide]",+++ (30% ≤ Ymin < 50%),< 10 nM
"CNC(=O)COc1cc2cc(Nc3nc(N4CC5(CCC(Nc6c(F)ccc7c(C8CCC(=O)NC8=O)nn(C)c67)CC5)C4)ncc3Cl)cnc2n(C(C)C)c1=O (stereo not drawn) [Compound 222, 2-[[6-[[5-chloro-2-[7-[[3-(2,6-dioxo-3-piperidyl)-6-fluoro-1-methyl-indazol-7-yl]amino]-2-azaspiro[3.5]nonan-2-yl]pyrimidin-4-yl]amino]-1-isopropyl-2-oxo-1,8-naphthyridin-3-yl]oxy]-N-methyl-acetamide]",++ (50% ≤ Ymin < 70%),10 to 100 nM
"CNC(=O)COc1cc2cc(Nc3nc(N4CC[C@@H](CN5CCN(c6ccc7c(C8CCC(=O)NC8=O)nn(C)c7c6)CC5)[C@H](C)C4)ncc3Cl)cnc2n(C(C)C)c1=O (stereo partly drawn) [Compound 176d, 2-[[6-[[5-chloro-2-[(3S,4R)-4-[[4-[3-(2,6-dioxo-3-piperidyl)-1-methyl-indazol-6-yl]piperazin-1-yl]methyl]-3-methyl-1-piperidyl]pyrimidin-4-yl]amino]-1-isopropyl-2-oxo-1,8-naphthyridin-3-yl]oxy]-N-methyl-acetamide]",+++ (30% ≤ Ymin < 50%),< 10 nM
"CNC(=O)COc1cc2cc(Nc3nc(N4CCC5(CCC(CN6CCC(c7ccc8c(C9CCC(=O)NC9=O)nn(C)c8c7F)CC6)CC5)CC4)ncc3Cl)cnc2n(C(C)C)c1=O (stereo not drawn) [Compound 240, 2-((6-((5-chloro-2-(9-((4-(3-(2,6-dioxopiperidin-3-yl)-7-fluoro-1-methyl-1H-indazol-6-yl)piperidin-1-yl)methyl)-3-azaspiro[5.5]undecan-3-yl)pyrimidin-4-yl)amino)-1-isopropyl-2-oxo-1,2-dihydro-1,8-naphthyridin-3-yl)oxy)-N-methylacetamide]",++++ (Ymin < 30%),10 to 100 nM
"CNC(=O)COc1cc2cc(Nc3nc(N4CCC(CN5CCN(c6cccc7c(C8CCC(=O)NC8=O)nn(C)c67)C[C@H]5C)CC4)ncc3Cl)cnc2n(C(C)C)c1=O (stereo partly drawn) [Compound 192b, 2-[[6-[[5-chloro-2-[4-[[(2R)-4-[3-(2,6-dioxo-3-piperidyl)-1-methyl-indazol-7-yl]-2-methyl-piperazin-1-yl]methyl]-1-piperidyl]pyrimidin-4-yl]amino]-1-isopropyl-2-oxo-1,8-naphthyridin-3-yl]oxy]-N-methyl-acetamide]",++++ (Ymin < 30%),10 to 100 nM
"CNC(=O)COc1cc2cc(Nc3nc(N4CC5(CCC(Nc6cc7c(cc6F)c(C6CCC(=O)NC6=O)nn7C)CC5)C4)ncc3Cl)cnc2n(C(C)C)c1=O (stereo not drawn) [Compound 184, 2-[[6-[[5-chloro-2-[7-[[3-(2,6-dioxo-3-piperidyl)-5-fluoro-1-methyl-indazol-6-yl]amino]-2-azaspiro[3.5]nonan-2-yl]pyrimidin-4-yl]amino]-1-isopropyl-2-oxo-1,8-naphthyridin-3-yl]oxy]-N-methyl-acetamide]",++++ (Ymin < 30%),< 10 nM
"CNC(=O)COc1cc2cc(Nc3nc(N4CCN(C[C@H]5CCN(c6ccc7c(C8CCC(=O)NC8=O)nn(C)c7c6)C5)[C@@H](C)C4)ncc3Cl)cnc2n(C(C)C)c1=O (stereo partly drawn) [Compound 216a, 2-[[6-[[5-chloro-2-[(3S)-4-[[(3R)-1-[3-(2,6-dioxo-3-piperidyl)-1-methyl-indazol-6-yl]pyrrolidin-3-yl]methyl]-3-methyl-piperazin-1-yl]pyrimidin-4-yl]amino]-1-isopropyl-2-oxo-1,8-naphthyridin-3-yl]oxy]-N-methyl-acetamide]",++ (50% ≤ Ymin < 70%),10 to 100 nM
